Columns and labels:
[1] = test system: HKB-11 lymphoma cells; experiment: Label-free bottom-up LC-MS proteomics, differentially expressed proteins; assay type: cell-based, human
Description: The HKB-11 lymphoma cells were placed in 6-well plates at a density of 3.0 × 10^6 cells/well and incubated overnight at 37 °C in 5% CO2. […] Treatments were performed in triplicate and incubated for 24 h under the same conditions. Following incubation, each flask of cells was subjected to a 0.25% w/v trypsin treatment for 4 min at 37 °C, and the cell culture medium was collected. Additionally, an equal volume of DMEM F-12 medium (containing 10% FBS) was added before mixing with the previously collected media to neutralise the trypsin. The cells were spun in a centrifuge at 500× g for 5 min at RT. The cell pellets were washed twice with ice-cold PBS and spun again at 500× g for 5 min. These cell pellets were then suspended in a lysis buffer that included 1 μL of universal nuclease (Easypep Mini Kit) (Thermo Fisher Scientific, Sydney, NSW, Australia) and supplemented with Halt™ Protease and Phosphatase Inhibitor Cocktail in a 1:100 ratio (Thermo Fisher Scientific, Sydney, NSW, Australia). The cells were gently pipetted 10–15 times to reduce the sample’s viscosity and then placed on ice for 20 min. The lysate was centrifuged at 14,000 rpm for 20 min at 4 °C, and the resulting liquid was collected.
The Pierce™ Rapid Gold BCA Protein Assay Kit (#A53226, Thermo Fisher Scientific, Sydney, NSW, Australia) was used to determine the protein concentration of the cell lysate in triplicate, using a bovine serum albumin (BSA) standard, following the manufacturer’s protocol. In brief, 1 μL of each sample replicate was diluted 1:20 in Milli-Q water, along with 20 μL of each standard, and then placed in a 96-well plate with 200 μL of working reagent in each well. Samples were diluted to a concentration within the 20–2000 μg/mL working range. The plate was thoroughly mixed on a plate shaker for 30 s and incubated at RT for 5 min, and then the absorbance was measured within 20 min at 480 nm using a microplate spectrophotometer (BMG CLARIOstar, Melbourne, VIC, Australia). The blank absorbance was subtracted from all other readings of standards and samples, and the sample concentration was determined using the established BSA standard calibration curve. The samples were then stored at −80 °C for further analysis.
The protein samples (100 μg) were subjected to chemical and enzymatic sample processing using the EasyPep™ Mini MS Sample Prep Kit following the manufacturer’s instructions (Thermo Fisher Scientific, Sydney, NSW, Australia) and as reported in the literature. Briefly, the sample volume was adjusted to 100 μL using a lysis buffer in a microcentrifuge tube. Subsequently, the reduction and alkylation solutions (50 μL each) were introduced, gently mixed, and incubated at 95 °C with a heat block for 10 min. The samples were allowed to cool to RT, after which 50 μL of the reconstituted trypsin/lys-C protease mixture was added to each sample and incubated with shaking at 37 °C for 3 h. Following incubation, 50 μL of a digestion stop solution was gently mixed into the samples. Peptide clean-up columns were used to remove both hydrophilic and hydrophobic impurities. The resulting clean peptide samples were dehydrated using a vacuum centrifuge and reconstituted in 100 μL of a 0.1% formic acid solution in water for LC–MS analysis. Subsequently, these samples were carefully transferred to maximum recovery sample vials (Waters Corp., Milford, MA, USA).
Label-free, bottom-up proteomic quantification was performed using a micro high-performance liquid chromatography system (Waters M-Class) coupled with a SCIEX™ TripleTOF® 6600 quadrupole time-of-flight mass spectrometer (SCIEX, Framingham, MA, USA), operated in positive electrospray ionisation mode (ESI+). […]

[2] = test system: HKB-11 lymphoma cells; experiment: ROS production, H2DCFDA assay; assay type: cell-based, human; settings: 4 h
Description: Briefly, HKB-11 lymphoma cells (2.5 × 10^5 cells/mL) were cultured in a 96-well plate, allowed to adhere overnight, and treated with 20 μM H2DCFDA for 45 min to assess ROS levels. The dye solution was removed, and cells were washed with 1× buffer. Next, the cells were treated with N (8000 μM), N (4000 μM), UB (500 μM), UB (250 μM), N/UB (3500 μM), N/UB (1750 μM), N/UB (5750 μM), N/UB (2875 μM), Dox (4 μM), and tert-butyl hydroperoxide (TBHP) (150 μM) and then incubated at 37 °C for 4 h. Finally, the plate was immediately read at Ex/Em = 485/535 nm using a microplate spectrophotometer (BMG CLARIOstar, VIC, Australia). The fold change in ROS production was determined relative to the untreated control (cells treated with the supplement buffer according to the manufacturer’s protocol).

[3] = HKB-11, UB 300 μM, 24 h, vs untreated control, Q ≤ 0.05
[4] = HKB-11, N 3200 μM, 24 h, vs untreated control, Q ≤ 0.05

## O=c1oc2cc(O)ccc2c2ccccc12 [UB, Urolithin B]
[1]; [3]
  Log2FC APOC3 (Apolipoprotein C-III): 2.04
  Log2FC C4BPA (C4b-binding protein alpha chain): 4.39
  Log2FC CLEC11A (C-type lectin domain family 11 member A): 3.06
  Log2FC COX6C (Cytochrome c oxidase subunit 6C): 2.07
  Log2FC COX7C (Cytochrome c oxidase subunit 7C, mitochondrial): 2.08
  Log2FC FGB (Fibrinogen beta chain): 2.14
  Log2FC GSN (Gelsolin): 2.26
  Log2FC HBD (Haemoglobin subunit delta; Haemoglobin subunit beta): 5.94
  Log2FC HBE1 (Haemoglobin subunit epsilon; gam1; gamma-2): 5.63
  Log2FC ITIH2 (Inter-alpha-trypsin inhibitor heavy chain H2): 2.76
  Log2FC MAD2L1 (Mitotic spindle assembly checkpoint protein MAD2A): −1.45
  Log2FC MT-CO2 (Cytochrome c oxidase subunit 2): 2.34
  Log2FC MT-ND4 (NADH-ubiquinone oxidoreductase chain 4): 2.24
  Log2FC NDUFA11 (NADH dehydrogenase [ubiquinone] 1 alpha subcomplex subunit 11): 2.18
  Log2FC PCNA (Proliferating cell nuclear antigen): −0.63
  Log2FC PSME3 (Proteasome activator complex subunit 3): −0.59
  Log2FC SAMM50 (Sorting and assembly machinery component 50 homolog): 2.01
  Log2FC UBE2E1 (Ubiquitin-conjugating enzyme E2 E1; E2 E3; E2 E2): −1.69
  Log2FC UBE2S (Ubiquitin-conjugating enzyme E2 S): −1.21
[2]; HKB-11, 500 μM and 250 μM, p ≥ 0.05, n = 3
  ROS levels compared to the untreated control: minimal changes

## Nisin (ITSISLCTPGCKTGALMGCNMKTATCHCSIHVSK; Lantibiotic nisin-A; UniProt P13068 24-57, looked up) [34-amino-acid lantibiotic peptide (bacteriocin) produced by Lactococcus lactis; purchased]
[1]; [4]
  Log2FC CDK4 (Cyclin-dependent kinase 4): −1.26
  Log2FC CTNNA1 (Catenin alpha-1): −0.97
  Log2FC HDAC1 (Histone deacetylase 1): −0.67
  Log2FC LARP1 (La-related protein 1): −1.27
  Log2FC MAPK14 (Mitogen-activated protein kinase 14): −0.80
  Log2FC NUP62 (Nuclear pore glycoprotein p62): −0.60
  Log2FC POLR2E (DNA-directed RNA polymerases I, II, and III subunit RPABC1): −0.62
  Log2FC POLR2G (DNA-directed RNA Polymerase II subunit RPB7): −0.63
  Log2FC POLR2H (DNA-directed RNA polymerases I, II, and III subunit RPABC3): −0.59
  Log2FC PPP1R14B (Protein phosphatase 1 regulatory subunit 14B): −0.93
  Log2FC PRC1 (Protein regulator of cytokinesis 1): −0.72
  Log2FC RFC1 (Replication factor C subunit 1): −0.85
  Log2FC RFC2 (Replication factor C subunit 2): −0.59
  Log2FC SRPK2 (SRSF protein kinase 2): −0.70
  Log2FC TYMS (Thymidylate synthase): −1.54
[1]; HKB-11, N treatment (3200 µM), 24 h, vs untreated control
  Log2FC PCNA: −0.63
[1]; HKB-11, Nisin_3.2 / Control, Qvalue 0.00903294
  Log2FC PLPBP (Pyridoxal phosphate homeostasis protein): 0.58
[1]; HKB-11, Nisin_3.2 / Control, Qvalue 0.0139626
  Log2FC THOC3 (THO complex subunit 3): -0.58
[1]; HKB-11, Nisin_3.2 / Control, Qvalue 0.0377318
  Log2FC MAZ (Myc-associated zinc finger protein): -0.58
[1]; HKB-11, Nisin_3.2 / Control, Qvalue 0.0383948
  Log2FC TXNDC9 (Thioredoxin domain-containing protein 9): -0.58
[2]; HKB-11, 8000 μM, p ≤ 0.01, n = 3
  ROS levels compared to the untreated control: statistically significant increase

From article PMC12295306, “Gut Microbial Postbiotics as Potential Therapeutics for Lymphoma: Proteomics Insights of the Synergistic Effects of Nisin and Urolithin B Against Human Lymphoma Cells” (International Journal of Molecular Sciences, 2025)
